# Reference: patent publication US20050228046A1, “Alkylamine as an antimicrobial agent in ophthalmic compositions” (ADVANCED MEDICAL OPTICS, INC., priority 2004, published 2005)
# Tests used:
# [1] = system: five FDA/ISO specified test organisms; experiment: Antimicrobial activity against the five-microbial panel, FDA/ISO disinfection criteria; format: cell-based; conditions: result in words
# Protocol: The following is the procedure by which various antimicrobial agents and solutions are tested for their ability to reduce microbial loads over short periods of time, typically 24 hours and less. The procedure is a basic microbiology challenge test, which involves the inoculation of test product aliquots with a known number of viable cells of several test organisms, and assay for the survivors at various time intervals. The results are used to calculate log drops at soak times and construct kill-curves (graphs of survivors versus time) if desired. Candida albicans, ATCC 10231, is one of five organisms specified per FDA and ISO/CLI tests for the testing of contact lens disinfectants (FDA Premarket Notification (510k) Guidance Document for Contact Lens Care Products, Appendix B, Apr. 1, 1997 and ISO/FDIS 14729: Ophthalmic optics-Contact lens care products-Microbiological requirements and test methods for products and regimens for hygienic management of contact lenses, January 2001). Contact lens disinfectants are also known as contact lens multi-purpose solutions when they are used for rinsing, cleaning, disinfection, storage and rewetting contact lenses. The five FDA/ISO specified test organisms are listed below: • Serratia marcescens, ATCC 13880 • Staphylococcus aureus, ATCC 6538 • Pseudomonas aeruginosa, ATCC 9027 • Candida albicans, ATCC 10231 • Fusarium solani, ATCC 36031 Candida albicans is often the most resistant of the five organisms to commonly used cationic antimicrobial agents in contact lens multi-purpose solutions. Thus, achievement of adequate antimicrobial activity against Candida is often the most difficult task to pass a particular disinfection efficacy standard. FDA and ISO guidelines specify two disinfection efficacy standards, indicated in the table below: Stand Alone Disinfectant (Primary) Criteria: [table] The specific test procedure for testing antimicrobial activity against the five FDA/ISO specified test organisms is as follows (C. albicans is provided as a specific example): Test samples are sterile-filtered through a 0.22 micron sterile filter into sterile plastic high density polyethylene bottles or plastic flasks. A 10-mL aliquot of test sample is aseptically transferred into a sterile polystyrene plastic test tube. Sterile saline (0.90 w/v % NaCl) with 0.05 w/v % Polysorbate 80 (SS+TWEEN) is transferred into a separate control tube. All samples and control are stored at 20-25° C. throughout the duration of the test.
# [2] = Contact lens uptake: content left in solution after shaking with lenses; format: physicochemical; conditions: Myristylamine with TPGS 20 fold; for remaining content left in solution, Acuvue / remaining content left in solution, Purevision: 15 ml solution, closed system shaken 6 days at room temperature; for remaining content left in solution, Acuvue: 2 Acuvue lenses; for remaining content left in solution, Purevision: 2 Purevision lenses; for remaining content left in solution, Without Lens: 15 ml system without lenses, shaken 6 days at room temperature
# Protocol: The results in Table 9A show the remaining quaternary ammonium and tertiary amine content left in solution after a 15 ml-solution-2 lenses closed system has been shaken for 6 days at room temperature. […] The control which was run for this experiment, which includes the remaining ingredients in the solutions referenced in Table 9A are listed in Table 9B. As one of ordinary skill in the art would realize, the less quaternary ammonium or tertiary amine content remaining in solution after the shaking period, the higher the absorption by the lenses.
# [3] = system: Pseudomonas aeruginosa, ATCC 9027; experiment: Microbiology challenge test, log drop; format: cell-based
# Protocol: (§1) The following is the procedure by which various antimicrobial agents and solutions are tested for their ability to reduce microbial loads over short periods of time, typically 24 hours and less. The procedure is a basic microbiology challenge test, which involves the inoculation of test product aliquots with a known number of viable cells of several test organisms, and assay for the survivors at various time intervals. The results are used to calculate log drops at soak times and construct kill-curves (graphs of survivors versus time) if desired.
# (§2) Candida albicans, ATCC 10231, is one of five organisms specified per FDA and ISO/CLI tests for the testing of contact lens disinfectants (FDA Premarket Notification (510k) Guidance Document for Contact Lens Care Products, Appendix B, Apr. 1, 1997 and ISO/FDIS 14729: Ophthalmic optics-Contact lens care products-Microbiological requirements and test methods for products and regimens for hygienic management of contact lenses, January 2001). Contact lens disinfectants are also known as contact lens multi-purpose solutions when they are used for rinsing, cleaning, disinfection, storage and rewetting contact lenses. The five FDA/ISO specified test organisms are listed below: • Serratia marcescens, ATCC 13880 • Staphylococcus aureus, ATCC 6538 • Pseudomonas aeruginosa, ATCC 9027 • Candida albicans, ATCC 10231 • Fusarium solani, ATCC 36031
# (§3) The specific test procedure for testing antimicrobial activity against the five FDA/ISO specified test organisms is as follows (C. albicans is provided as a specific example): Test samples are sterile-filtered through a 0.22 micron sterile filter into sterile plastic high density polyethylene bottles or plastic flasks. A 10-mL aliquot of test sample is aseptically transferred into a sterile polystyrene plastic test tube. Sterile saline (0.90 w/v % NaCl) with 0.05 w/v % Polysorbate 80 (SS+TWEEN) is transferred into a separate control tube. All samples and control are stored at 20-25° C. throughout the duration of the test.
# (§4) Test cultures of Candida albicans, ATCC 10231 are prepared in the conventional manner. Candida albicans cultures are grown on agar slants from primary frozen, lyophilized or “Culti-loop®” cultures. Three mL of sterile 0.9% saline is used to gently dislodge culture growth from the agar surface. The resulting harvest is transferred to an appropriate screw cap test tube containing glass beads and vortexed for approximately one minute. The vortexed harvest is diluted as needed with sterile 0.9% saline to prepare the culture inoculum with a concentration of 1×10e8 CFU/mL. Fifty microliters of culture inoculum is added to 10.0 mL of each test sample and control, so that the final inoculum level is in the range of 1×10e5 to 1×10e6 CFU(colony forming units) per mL of Candida albicans, ATCC 10231. Each sample and control tube is vortexed briefly to disperse the inoculum. Contact time intervals for testing activity against Candida are typically 4 or 6 hours, to conform to the intended product label instructions for contact lens soak time.
# (§5) Aerobic Plate Count Methods are performed in order to quantitate test samples for their levels of survivors. At appropriate assay times, 0.5 mL well-vortexed aliquots are removed from sample tubes and added to glass test tubes containing 4.5 mL Letheen Neutralizing Broth media (Berton, Dickinson and Company, Sparks, Md.). After a previously determined, validated neutralizing time period, these samples are diluted 10-fold through serial dilutions using glass test tubes containing 4.5 mL Letheen Neutralizing Broth media. Aliquots of 0.1 mL are removed from each dilution tube and spread-plate applied to agar plates containing Sabouraud Dextrose Agar (SAB)(Berton, Dickinson and Company, Sparks, Md.). 10^1 to 10^4 CFU/mL survivor levels are quantitated. […]
# [4] = system: Serratia marcescens, ATCC 13880; experiment: Microbiology challenge test, log drop; format: cell-based
# Protocol: as §1, §2, §3, §4, §5
# [5] = system: Staphylococcus aureus, ATCC 6538; experiment: Microbiology challenge test, log drop; format: cell-based
# Protocol: as §1, §2, §3, §4, §5
# [6] = system: Candida albicans, ATCC 10231; experiment: Microbiology challenge test, log drop; format: cell-based
# Protocol: as §1, §2, §3, §4, §5
# [7] = system: Fusarium solani, ATCC 36031; experiment: Microbiology challenge test, log drop; format: cell-based
# Protocol: as §1, §2, §3, §4, §5
# [8] = Table 2B: Dodecylamine 0.0003 % w/w, Tetronic 1307 0.05, pH 7.8
# [9] = Table 2B: Dodecylamine 0.0005 % w/w, Tetronic 1307 0.05, pH 7.8
# [10] = Cetylpyridinium Chloride 0.001 w/v %, TPGS 0, Tetronic 1307 0.05
# [11] = Cetylpyridinium Chloride 0.001 w/v %, TPGS 0.025, Tetronic 1307 0.05
# [12] = Table 8B: Cetylamine 0.0001 % w/w with PHMB 0.00002, Pluronic F87 0.05, pH 7.7
# [13] = Table 8B: Cetylamine 0.0001 % w/w, PHMB 0.00, Pluronic F87 0.05, pH 7.7
# [14] = Table 8B: Cetylamine 0.000125 % w/w, PHMB 0.00, Pluronic F87 0.05, pH 7.7
# [15] = Table 8B: Cetylamine 0.0003 % w/w, PHMB 0.00, Pluronic F87 0.05, pH 7.7
compound,measurement,setting,value
"CCCCCCCCCCCCN [Dodecylamine, reference compound]",antimicrobial activity,[1],very weak antimicrobial activity
same,antimicrobial activity,[1]; listed as dodecylamine,not qualified as a disinfectant for contact lens care
same,"remaining content left in solution, Acuvue",[2],35.0 ppm
same,"remaining content left in solution, Purevision",[2],14.1 ppm
same,"remaining content left in solution, Without Lens",[2],44.4 ppm
same,Log Drop,[3]; [8],1.4
same,Log Drop,[3]; [9],1.36
same,Log Drop,[4]; [8],0.46
same,Log Drop,[4]; [9],0.46
same,Log Drop,[5]; [8],0.34
same,Log Drop,[5]; [9],0.12
same,Log Drop,[6]; [8],0.91
same,Log Drop,[6]; [9],1.77
same,Log Drop,[7]; [8],0.09
same,Log Drop,[7]; [9],0.16
"CCCCCCCCCCCCCCCC[n+]1ccccc1 [Cetylpyridinium Chloride, reference compound]","remaining content left in solution, Acuvue",[2],3.3 ppm
same,"remaining content left in solution, Purevision",[2],1.3 ppm
same,"remaining content left in solution, Without Lens",[2],42.7 ppm
same,Log Drop,[6]; [10],4.41
same,Log Drop,[6]; [11],0.12
same,Log Drop,[7]; [10],>4.08
same,Log Drop,[7]; [11],1.06
CCCCCCCCCCCCCC(=O)NCCCN(C)C [Myristylamidopropyl-dimethylamine],"remaining content left in solution, Acuvue",[2],18.2 ppm
same,"remaining content left in solution, Purevision",[2],4.7 ppm
same,"remaining content left in solution, Without Lens",[2],43.5 ppm
CCCCCCCCCCCCCCCCN [Cetylamine],Log Drop,[3]; [12],4.43
same,Log Drop,[3]; [13],4.49
same,Log Drop,[3]; [14],3.95
same,Log Drop,[3]; [15],4.49
same,Log Drop,[4]; [12],4.18
same,Log Drop,[4]; [13],2.35
same,Log Drop,[4]; [14],3.76
same,Log Drop,[4]; [15],3.61
same,Log Drop,[5]; [12],4.81
same,Log Drop,[5]; [13],4.18
same,Log Drop,[5]; [14],4.81
same,Log Drop,[5]; [15],4.79
same,Log Drop,[6]; [12],1.51
same,Log Drop,[6]; [13],2.89
same,Log Drop,[6]; [14],1.97
same,Log Drop,[6]; [15],2.89
same,Log Drop,[7]; [12],1.14
same,Log Drop,[7]; [13],1.3
same,Log Drop,[7]; [14],2.76
same,Log Drop,[7]; [15],1.48
